Like-named read-outs stand apart in the source and are kept apart here.
How the values were obtained:
male Sprague Dawley rats = format: in vivo, rat
Male SD rats = assay: J147 dose-response, 2-hour suture MCAO-induced ischemia followed by reperfusion, 72 h (Example 3); format: in vivo, rat
SD rats = settings: rat, in vivo
[1] = J147 1.0, 10, 30 mg/kg at 2 hours after onset of ischemia, 72 h after stroke, dose-dependent manner

SMILES: COc1cccc(/C=N/N(C(=O)C(F)(F)F)c2ccc(C)cc2C)c1 [Compound J147]
- optimal effective dose (male Sprague Dawley rats; iv, doses of 1, 10 and 30 mg/kg tested): 10 mg/kg
- infarct volume (TTC-stained sections) (male Sprague Dawley rats; rat, in vivo): large reduction
- infarct volume relative to placebo (TTC-stained sections) (male Sprague Dawley rats; rat, in vivo): insignificant reduction
- infarct volume (TTC-stained sections) (male Sprague Dawley rats; rat, in vivo, ip): modest reduction
- effective optimal dose for the treatment of acute ischemic stroke in rats (Male SD rats; 1.0, 10, 30 mg/kg tested): 10 mg/kg
- infarct volumes (Male SD rats; [1]): significantly reduced
- neurological deficit after reperfusion (Bederson score) (Male SD rats; [1]): significantly reduced
- protection from stroke in the absence of reperfusion (infarction, TTC-stained sections) (SD rats): fails to provide any significant protection
